Type in all cases: cell-based
Assay [1] has as its target T1, pig TRPM8 (Sus scrofa, UniProt F1SM15).
T1 construct: expressed in transfected cells; host or cells: CHO (pcDNA5/FRT/TO vector; hygromycin B and blasticidin selection)
In words: In vitro pig TRPM8 automated patch-clamp assay (SyncroPatch 384PE, CHO cells). Conditions: CHO cells expressing pig TRPM8, 28° C. The gist of the method: (§1)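 Whole-cell automated patch clamp on engineered CHO lines at 28 °C, held at −60 mV, with −80 to +80 mV ramps every 5 s; one compound concentration per well. Peak current minus pre-addition baseline was normalised to no-compound control and Emax, and EC50 was fitted; 200 μM menthol wells served as control.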

For assay [2], the target named is T2, human TRPM8 (Homo sapiens, UniProt Q7Z2W7).
T2 construct: expressed in transfected cells; host or cells: CHO (p658 mammalian expression vector)
In words: In vitro human TRPM8 fluorescence calcium flux assay (recombinant CHO cells, Fluo4-AM, FDSS6000). The settings on record: recombinant CHO cells expressing human TRPM8; menthol-related EC50, normalized to 100 μM menthol. In outline: (§2)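 CHO cells stably expressing pig or human TRPM8, loaded with 2 μM Fluo4-AM in HBSS/20 mM HEPES/0.1% BSA/2.5 mM probenecid for 1 h at RT. Intracellular calcium read kinetically for 3 min after compound addition. EC50 from sixteen-point curves, normalized to 100 μM menthol maximal response.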
(Calcium assays in cells follow changes in intracellular calcium, usually with a dye or a luminescent sensor.)

The target in assay [3] is T1, pig TRPM8. Briefly: In vitro pig TRPM8 fluorescence calcium flux assay (recombinant CHO cells, Fluo4-AM, FDSS6000). Conditions: recombinant CHO cells expressing pig TRPM8; menthol-related EC50, normalized to 100 μM menthol. In outline:
as §2

For assay [4], the target named is T2, human TRPM8. Briefly: In vitro human TRPM8 automated patch-clamp assay (SyncroPatch 384PE, CHO cells). The settings on record: CHO cells expressing human TRPM8, 28° C. In outline:
as §1
A general note: Patch clamp records ionic current or voltage across a cell membrane.

Structures can show the parent of a compound that is named as a salt.

T1 sequence (F1SM15 1-1104): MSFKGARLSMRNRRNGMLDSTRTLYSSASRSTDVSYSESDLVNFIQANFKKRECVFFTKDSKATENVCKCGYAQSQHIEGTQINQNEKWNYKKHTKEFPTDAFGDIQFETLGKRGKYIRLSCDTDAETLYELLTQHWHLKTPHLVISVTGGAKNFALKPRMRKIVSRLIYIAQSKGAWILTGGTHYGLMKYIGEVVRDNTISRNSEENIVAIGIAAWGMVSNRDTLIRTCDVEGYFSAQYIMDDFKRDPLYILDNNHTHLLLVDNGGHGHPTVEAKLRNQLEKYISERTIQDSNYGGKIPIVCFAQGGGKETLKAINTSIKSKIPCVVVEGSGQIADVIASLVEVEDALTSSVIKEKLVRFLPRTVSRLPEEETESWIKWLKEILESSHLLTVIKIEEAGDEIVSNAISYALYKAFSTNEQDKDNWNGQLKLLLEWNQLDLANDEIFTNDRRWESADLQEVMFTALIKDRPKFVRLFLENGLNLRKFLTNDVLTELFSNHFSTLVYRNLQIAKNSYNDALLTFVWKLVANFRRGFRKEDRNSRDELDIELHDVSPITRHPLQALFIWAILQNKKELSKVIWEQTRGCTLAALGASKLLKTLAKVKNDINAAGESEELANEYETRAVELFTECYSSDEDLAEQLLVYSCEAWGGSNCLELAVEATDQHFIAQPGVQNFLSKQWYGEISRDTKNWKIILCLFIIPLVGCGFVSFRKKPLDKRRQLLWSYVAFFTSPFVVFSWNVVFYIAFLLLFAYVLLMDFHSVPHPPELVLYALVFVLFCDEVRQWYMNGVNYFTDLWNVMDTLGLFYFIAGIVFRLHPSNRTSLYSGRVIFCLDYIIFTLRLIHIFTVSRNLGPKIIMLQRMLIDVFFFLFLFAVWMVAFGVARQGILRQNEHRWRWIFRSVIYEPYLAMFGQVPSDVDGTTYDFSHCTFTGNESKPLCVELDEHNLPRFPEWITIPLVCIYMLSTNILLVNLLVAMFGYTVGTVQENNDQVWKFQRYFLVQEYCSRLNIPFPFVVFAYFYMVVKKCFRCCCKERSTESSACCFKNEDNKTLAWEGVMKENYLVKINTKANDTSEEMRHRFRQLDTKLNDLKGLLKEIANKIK
T2 sequence (Q7Z2W7 whole entry): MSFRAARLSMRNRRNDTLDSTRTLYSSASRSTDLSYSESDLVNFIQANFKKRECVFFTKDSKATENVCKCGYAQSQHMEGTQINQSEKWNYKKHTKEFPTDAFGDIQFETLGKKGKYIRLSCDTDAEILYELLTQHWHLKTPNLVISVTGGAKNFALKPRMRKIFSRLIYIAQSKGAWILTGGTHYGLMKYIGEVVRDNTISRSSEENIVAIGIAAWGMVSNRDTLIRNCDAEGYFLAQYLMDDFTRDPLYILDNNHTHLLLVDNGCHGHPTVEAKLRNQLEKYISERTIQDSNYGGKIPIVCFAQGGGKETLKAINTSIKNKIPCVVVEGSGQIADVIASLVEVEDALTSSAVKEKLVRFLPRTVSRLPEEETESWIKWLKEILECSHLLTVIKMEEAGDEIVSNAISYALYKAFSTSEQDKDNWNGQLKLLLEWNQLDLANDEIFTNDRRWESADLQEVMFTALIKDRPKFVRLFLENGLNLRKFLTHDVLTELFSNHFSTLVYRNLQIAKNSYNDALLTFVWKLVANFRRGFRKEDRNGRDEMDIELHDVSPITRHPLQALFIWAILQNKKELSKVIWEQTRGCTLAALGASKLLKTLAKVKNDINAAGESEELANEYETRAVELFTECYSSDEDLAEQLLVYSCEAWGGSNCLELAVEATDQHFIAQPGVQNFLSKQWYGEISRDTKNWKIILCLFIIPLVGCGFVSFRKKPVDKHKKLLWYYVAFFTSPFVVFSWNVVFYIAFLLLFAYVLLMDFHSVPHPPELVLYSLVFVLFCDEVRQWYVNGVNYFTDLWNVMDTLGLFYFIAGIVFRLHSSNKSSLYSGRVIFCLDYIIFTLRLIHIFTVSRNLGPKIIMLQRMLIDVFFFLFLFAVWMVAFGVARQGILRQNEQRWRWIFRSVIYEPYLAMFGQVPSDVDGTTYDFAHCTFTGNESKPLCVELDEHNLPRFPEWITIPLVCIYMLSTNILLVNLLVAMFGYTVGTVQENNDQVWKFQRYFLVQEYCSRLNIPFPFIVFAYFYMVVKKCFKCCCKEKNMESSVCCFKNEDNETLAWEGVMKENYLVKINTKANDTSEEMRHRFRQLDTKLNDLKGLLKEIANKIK

Usually EC50 stands for the concentration giving half of the maximal effect. For the compound `CC(C)[C@@H]1CC[C@@H](C)C[C@@]1(O)C(=O)NCC(C(=O)OCC(C)(C)N)c1ccccc1` (stereo partly drawn) [Example 73, 2-amino-2-methylpropyl 3-((1S,2S,5R)-1-hydroxy-2-isopropyl-5-methylcyclohexane-1-carboxamido)-2-phenylpropanoate hydrochloride], the EC50 at pig TRPM8 [1] was 1120 nM; on human TRPM8 [2], 4 nM; at pig TRPM8 [3] it was 8 nM; on human TRPM8 [4], 690 nM.
Consider `CC(C)[C@@H]1CC[C@@H](C)C[C@@]1(O)C(=O)NC[C@@H](O)c1cccc(CO)c1` [Example 44, (1S,2S,5R)-1-hydroxy-N-((2S)-hydroxy-2-(3-(hydroxymethyl)phenyl)ethyl)-2-isopropyl-5-methylcyclohexane-1-carboxamide], for which the EC50 at pig TRPM8 [1] turned out to be 711 nM; at human TRPM8 [2], 34.9 nM; on pig TRPM8 [3] it was 10.6 nM; on human TRPM8 [4], 1800 nM.
For `CC(C)[C@@H]1CC[C@@H](C)C[C@@]1(O)C(=O)NCC1(O)CCOc2ccccc21` (stereo partly drawn) [Example 96, (1S,2S,5R)-1-hydroxy-N-((4-hydroxychroman-4-yl)methyl)-2-isopropyl-5-methylcyclohexane-1-carboxamide] the same measures were 1100 nM, 10.3 nM, 25.2 nM and 630 nM.
Taken in the same sequence, the figures for `CC(C)[C@@H]1CC[C@@H](C)C[C@@]1(O)C(=O)NCC(NC(=O)CN)c1ccccc1` (single isomer, unassigned) [Example 184] were 567 nM, 14.5 nM, 28.1 nM and 600 nM.
For `CC(C)[C@@H]1CC[C@@H](C)C[C@@]1(O)C(=O)NCCc1ccccc1OCC(O)CO` (stereo partly drawn) [Example 9, (1S,2S,5R)—N-(2-(2,3-dihydroxypropoxy)phenethyl)-1-hydroxy-2-isopropyl-5-methylcyclohexane-1-carboxamide] the same measures were 4100 nM, 8.8 nM, 6.3 nM and 2400 nM.
Take `COC(=O)[C@@H](N)COc1cccc(CCNC(=O)[C@]2(O)C[C@H](C)CC[C@H]2C(C)C)c1` [Example 27, methyl O-(3-(2-((1S,2S,5R)-1-hydroxy-2-isopropyl-5-methylcyclohexane-1-carboxamido)ethyl)phenyl)-L-serinate]: the EC50 on pig TRPM8 [1] amounted to 4000 nM; at human TRPM8 [2], 3.1 nM; at pig TRPM8 [3] it was 10.3 nM; on human TRPM8 [4], 2400 nM.
As to `CC(C)[C@@H]1CC[C@@H](C)C[C@@]1(O)C(=O)NCCc1cccc(C(=O)OCCN)c1` [Example 16, 2-aminoethyl 3-(2-((1S,2S,5R)-1-hydroxy-2-isopropyl-5-methylcyclohexane-1-carboxamido)ethyl) benzoate hydrochloride], the EC50 on pig TRPM8 [1] was 2370 nM; at human TRPM8 [2], 16 nM; at pig TRPM8 [3] it was 13 nM; on human TRPM8 [4] it was 1290 nM.
For `CC(C)[C@@H]1CC[C@@H](C)C[C@@]1(O)C(=O)NCC(=O)c1ccc(O)cc1` [Example 143, (1S,2S,5R)-1-hydroxy-N-[2-(4-hydroxyphenyl)-2-oxo-ethyl]-2-isopropyl-5-methyl-cyclohexanecarboxamide] the same measures were 985 nM, 5.6 nM, 7.3 nM and 1100 nM.
With `CC(C)[C@@H]1CC[C@@H](C)C[C@@]1(O)C(=O)NCC(=O)c1ccccc1F` [Example 85, (1S,2S,5R)—N-(2-(2-fluorophenyl)-2-oxoethyl)-1-hydroxy-2-isopropyl-5-methylcyclohexane-1-carboxamide], the half-maximal effective concentration (EC50) at pig TRPM8 [1] stood at 967 nM; on human TRPM8 [2], 3.3 nM; at pig TRPM8 [3], 2.4 nM; at human TRPM8 [4] it was 700 nM.
For `CC(=O)O[C@H](CNC(=O)[C@]1(O)C[C@H](C)CC[C@H]1C(C)C)c1ccccc1` [Example 3, (S)-2-((1S,2S,5R)-1-hydroxy-2-isopropyl-5-methylcyclohexane-1-carboxamido)-1-phenylethyl acetate] the same measures were 9910 nM, 36.8 nM, 35.5 nM and 1120 nM.
Taken in the same sequence, the figures for `COC(=O)[C@@H](N)Cc1ccccc1CCNC(=O)[C@]1(O)C[C@H](C)CC[C@H]1C(C)C` [Example 19, methyl (S)-2-amino-3-(2-(2-((1S,2S,5R)-1-hydroxy-2-isopropyl-5-methylcyclohexane-1-carboxamido)ethyl)phenyl)propanoate] were 1520 nM, 7.1 nM, 19.9 nM and 1700 nM.
Turning to `COC(=O)Cc1cccc(CCNC(=O)[C@]2(O)C[C@H](C)CC[C@H]2C(C)C)c1` [Example 74, methyl 2-(3-(2-((1S,2S,5R)-1-hydroxy-2-isopropyl-5-methylcyclohexane-1-carboxamido)ethyl)phenyl)acetate], the EC50 on pig TRPM8 [1] was determined as 5190 nM; on human TRPM8 [2], 41 nM; at pig TRPM8 [3], 9 nM; on human TRPM8 [4], 2900 nM.
Taken in the same sequence, the figures for `CC(C)[C@@H]1CC[C@@H](C)C[C@@]1(O)C(=O)NCC(O)c1ccccc1O` (stereo partly drawn) [Example 35, (1S,2S,5R)-1-hydroxy-N-(2-hydroxy-2-(2-hydroxyphenyl)ethyl)-2-isopropyl-5-methylcyclohexane-1-carboxamide] were 1330 nM, 3 nM, 3 nM and 1010 nM.
Consider `COc1ccccc1CCNC(=O)[C@]1(O)C[C@H](C)CC[C@H]1C(C)C` [Example 155, (1S,2S,5R)-1-hydroxy-2-isopropyl-N-[2-(2-methoxyphenyl)ethyl]-5-methyl-cyclohexanecarboxamide], for which the EC50 on pig TRPM8 [1] is 3500 nM; at human TRPM8 [2] it was 23.8 nM; at pig TRPM8 [3], 17.4 nM; on human TRPM8 [4], 1200 nM.
For `CC(C)[C@@H]1CC[C@@H](C)C[C@@]1(O)C(=O)NCCOc1ccccc1` [Example 120, (1S,2S,5R)-1-hydroxy-2-isopropyl-5-methyl-N-(2-phenoxyethyl)cyclohexanecarboxamide] the same measures were 5600 nM, 31.1 nM, 13.9 nM and 3600 nM.
For `CCOC(=O)c1cccc(CCNC(=O)[C@]2(O)C[C@H](C)CC[C@H]2C(C)C)c1` [Example 28, ethyl 3-(2-((1S,2S,5R)-1-hydroxy-2-isopropyl-5-methylcyclohexane-1-carboxamido)ethyl)benzoate] the same measures were 5400 nM, 250 nM, 311 nM and 1440 nM.
Taken in the same sequence, the figures for `CC(C)[C@@H]1CC[C@@H](C)C[C@@]1(O)C(=O)NCCc1cccc(CO)c1` [Example 15, (1S,2S,5R)-1-hydroxy-N-(3-(hydroxymethyl)phenethyl)-2-isopropyl-5-methylcyclohexane-1-carboxamide] were 1510 nM, 3 nM, 2.1 nM and 1430 nM.
Consider `CC(C)[C@@H]1CC[C@@H](C)C[C@@]1(O)C(=O)NCC(=O)Oc1ccccc1` [Example 67, phenyl ((1S,2S,5R)-1-hydroxy-2-isopropyl-5-methylcyclohexane-1-carbonyl)glycinate], for which the EC50 at pig TRPM8 [1] amounted to 3360 nM; on human TRPM8 [2], 9 nM; on pig TRPM8 [3] it was 5 nM; at human TRPM8 [4] it was 2700 nM.

Source of the values: patent US20240124408A1 (Sanofi, priority 2020, published 2024).
